Values after ≈ are worked out from the molar mass of the structure shown.
Columns and labels:
Experiment in all cases: In vitro antibacterial evaluation: minimum inhibitory concentration (MIC), broth dilution method
Type in all cases: cell-based
Enterococcus sp. = test system: Enterococcus sp.
Experimental: (§1) The minimum inhibitory concentration (MIC), the lowest concentration of the antibiotic which inhibits growth of the test organism, is determined by the broth dilution method using Muller-Hinton II […] (Baltimore Biological Laboratories) following the recommendations of the National Committee for Clinical Laboratory Standards [Methods for dilution antimicrobial susceptibility tests for bacteria that grow aerobically, approved standard M7-A2, National Committee for Clinical Laboratory Standards, Villanova, Pa].
(§2) An inoculum level of 5×10^5 CFU/mL, and a range of antibiotic concentrations (64-0.06 μg/mL) is used. […] The test organisms include a spectrum of Gram-positive bacteria comprised of Staphylococcus sp., Streptococcus sp. and Enterococcus sp. These organisms include recent clinical isolates that are resistant to methicillin, penicillin and/or vancomycin.

Escherichia coli = test system: Escherichia coli
Experimental: as §1, §2

Staphylococcus sp. = details: broth dilution, 18 hours at 35° C.
Experimental: as §1, §2

Streptococcus sp. = test system: Streptococcus sp.
Experimental: as §1, §2

- MIC Enterococcus faecalis (ATCC 29212) (Enterococcus sp.; strain ATCC 29212): 4 µg/mL (≈ 2.82 µM)
- MIC Enterococcus faecalis (GC 2242) (Enterococcus sp.; strain GC 2242): 4 µg/mL (≈ 2.82 µM)
- MIC Enterococcus faecium (GC 2243) (Enterococcus sp.; strain GC 2243): 4 µg/mL (≈ 2.82 µM)
- MIC Enterococcus faecalis (GC 2691) (Enterococcus sp.; strain GC 2691): 8 µg/mL (≈ 5.64 µM)
- MIC Enterococcus faecalis (GC 3059) (Enterococcus sp.; strain GC 3059): 4 µg/mL (≈ 2.82 µM)
- MIC Enterococcus faecalis (GC 4552) (Enterococcus sp.; strain GC 4552): 4 µg/mL (≈ 2.82 µM)
- MIC Enterococcus faecalis (GC 4553) (Enterococcus sp.; strain GC 4553): 8 µg/mL (≈ 5.64 µM)
- MIC Enterococcus faecalis (GC 4554) (Enterococcus sp.; strain GC 4554): 8 µg/mL (≈ 5.64 µM)
- MIC Enterococcus faecium (GC 4556) (Enterococcus sp.; strain GC 4556): 8 µg/mL (≈ 5.64 µM)
- MIC Enterococcus faecium (GC 4557) (Enterococcus sp.; strain GC 4557): 2 µg/mL (≈ 1.41 µM)
- MIC Enterococcus avium (GC 4558) (Enterococcus sp.; strain GC 4558): 4 µg/mL (≈ 2.82 µM)
- MIC Enterococcus faecalis (GC 6189) (Enterococcus sp.; strain GC 6189): 4 µg/mL (≈ 2.82 µM)
- MIC Escherichia coli (ATCC 25922) (Escherichia coli; strain ATCC 25922): 64 µg/mL (≈ 45.1 µM)
- MIC Escherichia coli (GC 4559) (Escherichia coli; strain GC 4559): 64 µg/mL (≈ 45.1 µM)
- MIC Escherichi coli (GC 4560) (Escherichia coli; strain GC 4560): 0.5 µg/mL (≈ 0.353 µM)
- MIC Coagulase Negative Staphylococcus (GC 4547) (Staphylococcus sp.; 5×10^5 CFU/mL): 4 µg/mL (≈ 2.82 µM)
- MIC Coagulase Negative Staphylococcus (GC 4548) (Staphylococcus sp.; 5×10^5 CFU/mL): 1 µg/mL (≈ 0.705 µM)
- MIC Coagulase Negative Staphylococcus (GC 4549) (Staphylococcus sp.; 5×10^5 CFU/mL): 1 µg/mL (≈ 0.705 µM)
- MIC Coagulase Negative Staphylococcus (GC 4551) (Staphylococcus sp.; 5×10^5 CFU/mL): 2 µg/mL (≈ 1.41 µM)
- MIC Coagulase Negative Staphylococcus (GC 6257) (Staphylococcus sp.; 5×10^5 CFU/mL): 2 µg/mL (≈ 1.41 µM)
- MIC Staphylococcus aureus (ATCC 29213) (Staphylococcus sp.; 5×10^5 CFU/mL): 2 µg/mL (≈ 1.41 µM)
- MIC Staphylococcus aureus (GC 1131) (Staphylococcus sp.; 5×10^5 CFU/mL): 2 µg/mL (≈ 1.41 µM)
- MIC Staphylococcus aureus (GC 3051) (Staphylococcus sp.; 5×10^5 CFU/mL): 2 µg/mL (≈ 1.41 µM)
- MIC Staphylococcus aureus (GC 3053) (Staphylococcus sp.; 5×10^5 CFU/mL): 2 µg/mL (≈ 1.41 µM)
- MIC Staphylococcus aureus (GC 4541) (Staphylococcus sp.; 5×10^5 CFU/mL): 2 µg/mL (≈ 1.41 µM)
- MIC Staphylococcus aureus (GC 4542) (Staphylococcus sp.; 5×10^5 CFU/mL): 2 µg/mL (≈ 1.41 µM)
- MIC Staphylococcus aureus (GC 4544) (Staphylococcus sp.; 5×10^5 CFU/mL): 2 µg/mL (≈ 1.41 µM)
- MIC Staphylococcus aureus (GC 4545) (Staphylococcus sp.; 5×10^5 CFU/mL): 2 µg/mL (≈ 1.41 µM)
- MIC Staphylococcus aureus-SMITH (GC 4543) (Staphylococcus sp.; 5×10^5 CFU/mL): 1 µg/mL (≈ 0.705 µM)
- MIC Staphylococcus aureus (ATCC 29213) (Staphylococcus sp.; strain ATCC 29213): 2 µg/mL (≈ 1.41 µM)
- MIC Staphylococcus aureus (GC 1131) (Staphylococcus sp.; strain GC 1131): 2 µg/mL (≈ 1.41 µM)
- MIC Staphylococcus aureus (GC 3051) (Staphylococcus sp.; strain GC 3051): 2 µg/mL (≈ 1.41 µM)
- MIC Staphylococcus aureus (GC 3053) (Staphylococcus sp.; strain GC 3053): 2 µg/mL (≈ 1.41 µM)
- MIC Staphylococcus aureus (GC 4541) (Staphylococcus sp.; strain GC 4541): 2 µg/mL (≈ 1.41 µM)
- MIC Staphylococcus aureus (GC 4542) (Staphylococcus sp.; strain GC 4542): 2 µg/mL (≈ 1.41 µM)
- MIC Staphylococcus aureus-SMITH (GC 4543) (Staphylococcus sp.; strain GC 4543): 1 µg/mL (≈ 0.705 µM)
- MIC Staphylococcus aureus (GC 4544) (Staphylococcus sp.; strain GC 4544): 2 µg/mL (≈ 1.41 µM)
- MIC Staphylococcus aureus (GC 4545) (Staphylococcus sp.; strain GC 4545): 2 µg/mL (≈ 1.41 µM)
- MIC Coagulase Negative Staphylococcus (GC 4547) (Staphylococcus sp.; strain GC 4547): 4 µg/mL (≈ 2.82 µM)
- MIC Coagulase Negative Staphylococcus (GC 4548) (Staphylococcus sp.; strain GC 4548): 1 µg/mL (≈ 0.705 µM)
- MIC Coagulase Negative Staphylococcus (GC 4549) (Staphylococcus sp.; strain GC 4549): 1 µg/mL (≈ 0.705 µM)
- MIC Coagulase Negative Staphylococcus (GC 4551) (Staphylococcus sp.; strain GC 4551): 2 µg/mL (≈ 1.41 µM)
- MIC Coagulase Negative Staphylococcus (GC 6257) (Staphylococcus sp.; strain GC 6257): 2 µg/mL (≈ 1.41 µM)
- MIC Streptococcus pneumoniae (ATCC 6301) (Streptococcus sp.; strain ATCC 6301): <0.06 µg/mL
- MIC Streptococcus pneumoniae (GC 1894) (Streptococcus sp.; strain GC 1894): <0.06 µg/mL
- MIC Streptococcus pyogenes (GC 4563) (Streptococcus sp.; strain GC 4563): 0.25 µg/mL (≈ 0.176 µM)
- MIC Streptococcus agalactiae (GC 4564) (Streptococcus sp.; strain GC 4564): 0.12 µg/mL (≈ 0.0846 µM)
- MIC Streptococcus pneumoniae (GC 4565) (Streptococcus sp.; strain GC 4565): <0.06 µg/mL
Compound: CC(c1ccccc1)C1NC(=O)CNC(=O)C(CO)NC(=O)C(C(O)C2CNC(=N)N2C2OC(CO)C(O)C(O)C2O)NC(=O)C(C(O)C2CNC(=N)N2)NC(=O)C(Cc2ccc(OC3OC(CO)C(OC4OC5COC(c6cccc(Cl)c6)OC5C(O)C4O)C(O)C3O)cc2)NC1=O (stereo not drawn) [Example 138, Cyclo[glycyl-β-methylphenylalanyl-O-[4-O-[4,6-O-(3-chlorobenzylidene)hexopyranosyl]-hexopyranosyl]tyrosyl-3-(2-iminoimidazolidin-4-yl)seryl-3-(3-hexopyranosyl-2-iminoimidazolidin-4-yl)serylseryl]]
- MIC Staphylococcus haemolyticus (GC 4546) (Staphylococcus sp.; 5×10^5 CFU/mL): 2 µg/mL (≈ 1.41 µM)
- MIC Staphylococcus haemolyticus (GC 4546) (Staphylococcus sp.; strain GC 4546): 2 µg/mL (≈ 1.41 µM)
